Measured values as given in US7074789B2, “Kinase inhibitors” (Amgen Inc., priority 1999, dated 2006).
pIC50: −log10 of the molar value. Read-outs that look alike come from different tables or passages of the source.

How the values were obtained:
Type in all cases: biochemical
Kdr = target: T1, Kdr (Homo sapiens, UniProt P35968); assay: Kinase inhibition assay (33P transfer), Kdr; conditions: read-out: KDR-1
T1 construct: Kinases are expressed as either kinase domains or full length constructs; made in house
Procedure, shortened: (§1)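 Radiometric readout: 33P incorporated into surface-bound poly(Glu,Tyr) 4:1 or poly(Arg,Ser) 3:1 is counted by liquid scintillation after a 0.5% phosphoric acid wash. Enzymes were GST or polyHis fusions (kinase domain or full length) from E. coli or High Five insect cells.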

Lck = target: T2, Lck (Homo sapiens, UniProt P06239); assay: Kinase inhibition assay (33P transfer), Lck; conditions: read-out: Lck-1
T2 construct: Kinases are expressed as either kinase domains or full length constructs; made in house
Procedure, shortened: as §1

EGFR = target: T3, EGFR (Homo sapiens, UniProt P00533); assay: Kinase inhibition assay (33P transfer), EGFR; conditions: Table 2, kinase inhibition class; read-out: EGFR-1
T3 construct: Kinases are expressed as either kinase domains or full length constructs; made in house
Procedure, shortened: (§2)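 Steps: coat wells with poly(Glu,Tyr) 4:1 or poly(Arg,Ser) 3:1; add purified kinase, [33P]ATP and inhibitor; incubate; wash with 0.5% phosphoric acid; add liquid scintillant; count. IC50 corresponds to half-maximal reduction of bound 33P.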

Itk = target: T4, Itk (Homo sapiens, UniProt Q08881); assay: Kinase inhibition assay (33P transfer), Itk; conditions: read-out: Itk-1
T4 construct: Kinases are expressed as either kinase domains or full length constructs; made in house
T4 sequence (Q08881 1-620): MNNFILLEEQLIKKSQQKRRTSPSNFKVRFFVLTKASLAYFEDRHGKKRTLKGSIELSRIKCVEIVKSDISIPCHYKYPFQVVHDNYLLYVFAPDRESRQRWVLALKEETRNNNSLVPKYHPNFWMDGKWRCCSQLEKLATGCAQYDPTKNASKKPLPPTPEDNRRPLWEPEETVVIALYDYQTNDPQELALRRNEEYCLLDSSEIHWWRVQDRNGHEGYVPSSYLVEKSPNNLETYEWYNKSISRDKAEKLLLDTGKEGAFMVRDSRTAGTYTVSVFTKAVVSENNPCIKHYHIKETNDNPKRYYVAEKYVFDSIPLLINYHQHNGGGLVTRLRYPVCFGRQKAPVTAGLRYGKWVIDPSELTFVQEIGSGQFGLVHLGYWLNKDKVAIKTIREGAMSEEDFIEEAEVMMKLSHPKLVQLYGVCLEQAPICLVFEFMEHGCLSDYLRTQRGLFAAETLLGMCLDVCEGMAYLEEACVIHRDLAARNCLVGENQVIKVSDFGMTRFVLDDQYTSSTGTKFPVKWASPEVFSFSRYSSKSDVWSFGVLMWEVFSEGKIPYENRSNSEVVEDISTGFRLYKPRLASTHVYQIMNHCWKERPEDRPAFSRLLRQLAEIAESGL
Procedure, shortened: as §2

c-Met = target: T5, c-Met (Homo sapiens, UniProt P08581); assay: Kinase inhibition assay (33P transfer), c-Met; conditions: Table 2, kinase inhibition class; read-out: Met-1
T5 construct: Kinases are expressed as either kinase domains or full length constructs; made in house
Procedure, shortened: as §2

Zap-70 = target: T6, Zap-70 (Homo sapiens, UniProt P43403); assay: Kinase inhibition assay (33P transfer), Zap-70; conditions: read-out: Zap-1
T6 construct: Kinases are expressed as either kinase domains or full length constructs; made in house
T6 sequence (P43403 1-619): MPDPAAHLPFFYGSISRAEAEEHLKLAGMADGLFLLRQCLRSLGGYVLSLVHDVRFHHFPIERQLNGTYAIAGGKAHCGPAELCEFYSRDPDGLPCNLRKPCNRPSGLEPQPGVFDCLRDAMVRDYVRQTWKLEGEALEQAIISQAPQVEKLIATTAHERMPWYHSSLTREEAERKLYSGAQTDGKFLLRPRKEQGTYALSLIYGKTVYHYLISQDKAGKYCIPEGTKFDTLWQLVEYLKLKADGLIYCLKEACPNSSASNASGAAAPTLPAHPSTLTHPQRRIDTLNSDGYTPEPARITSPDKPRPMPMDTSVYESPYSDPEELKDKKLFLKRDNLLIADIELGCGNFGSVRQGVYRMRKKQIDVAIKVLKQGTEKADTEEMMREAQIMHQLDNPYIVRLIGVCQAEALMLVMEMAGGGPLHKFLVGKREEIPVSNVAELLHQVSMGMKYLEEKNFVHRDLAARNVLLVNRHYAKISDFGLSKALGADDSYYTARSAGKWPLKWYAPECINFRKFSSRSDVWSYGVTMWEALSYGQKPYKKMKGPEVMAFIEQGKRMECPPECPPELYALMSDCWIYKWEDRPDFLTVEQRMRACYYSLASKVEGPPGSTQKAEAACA
Procedure, shortened: as §1

Tek = target: T7, Tek (Homo sapiens, UniProt Q02763); assay: Kinase inhibition assay (33P transfer), Tek; conditions: read-out: Tek-1
T7 construct: Kinases are expressed as either kinase domains or full length constructs; made in house
Source text: The inhibitor compounds described herein are screened in the following manner. Kinases suitable for use in the following protocol to determine kinase activity of the compounds described herein include, -but are not limited to: Lck, Lyn, Src, Fyn, Syk, Zap-70, Itk, Tec, Btk, EGFR, ErbB2, Kdr, Flt-1, Flt-3, Tek, c-Met, InsR, and AKT.
Kinases are expressed as either kinase domains or full length constructs fused to glutathione S-transferase (GST) or polyHistidine tagged fusion proteins in either E. colior Baculovirus-High Five expression systems. They are purified to near homogeneity by affinity chromatography essentially as previously described (Lehr et al., 1996; Gish et al., 1995). In some instances, kinases are co-expressed or mixed with purified or partially purified regulatory polypeptides prior to measurement of activity.
Kinase activity and inhibition are measured essentially by established protocols (Braunwalder et al., 1996). Briefly, The transfer of ^33PO4 from ATP to the synthetic substrates poly(Glu, Tyr) 4:1 or poly(Arg, Ser) 3:1 attached to the bioactive surface of microtiter plates serves as the basis to evaluate enzyme activity. After an incubation period, the amount of phosphate transferred is measured by first washing the plate with 0.5% phosphoric acid, adding liquid scintillant, and then counting in a liquid scintillation detector. The IC50 is determined by the concentration of compound that causes a 50% reduction in the amount of […] incorporated onto the substrate bound to the plate.

AKT = target: T8, AKT (Homo sapiens, UniProt Q9Y243); assay: Kinase inhibition assay (33P transfer), AKT; conditions: Table 2, kinase inhibition class; read-out: AKT3-1
T8 construct: Kinases are expressed as either kinase domains or full length constructs; made in house
Procedure, shortened: as §1

T1 sequence (P35968 20-1356, species assumed): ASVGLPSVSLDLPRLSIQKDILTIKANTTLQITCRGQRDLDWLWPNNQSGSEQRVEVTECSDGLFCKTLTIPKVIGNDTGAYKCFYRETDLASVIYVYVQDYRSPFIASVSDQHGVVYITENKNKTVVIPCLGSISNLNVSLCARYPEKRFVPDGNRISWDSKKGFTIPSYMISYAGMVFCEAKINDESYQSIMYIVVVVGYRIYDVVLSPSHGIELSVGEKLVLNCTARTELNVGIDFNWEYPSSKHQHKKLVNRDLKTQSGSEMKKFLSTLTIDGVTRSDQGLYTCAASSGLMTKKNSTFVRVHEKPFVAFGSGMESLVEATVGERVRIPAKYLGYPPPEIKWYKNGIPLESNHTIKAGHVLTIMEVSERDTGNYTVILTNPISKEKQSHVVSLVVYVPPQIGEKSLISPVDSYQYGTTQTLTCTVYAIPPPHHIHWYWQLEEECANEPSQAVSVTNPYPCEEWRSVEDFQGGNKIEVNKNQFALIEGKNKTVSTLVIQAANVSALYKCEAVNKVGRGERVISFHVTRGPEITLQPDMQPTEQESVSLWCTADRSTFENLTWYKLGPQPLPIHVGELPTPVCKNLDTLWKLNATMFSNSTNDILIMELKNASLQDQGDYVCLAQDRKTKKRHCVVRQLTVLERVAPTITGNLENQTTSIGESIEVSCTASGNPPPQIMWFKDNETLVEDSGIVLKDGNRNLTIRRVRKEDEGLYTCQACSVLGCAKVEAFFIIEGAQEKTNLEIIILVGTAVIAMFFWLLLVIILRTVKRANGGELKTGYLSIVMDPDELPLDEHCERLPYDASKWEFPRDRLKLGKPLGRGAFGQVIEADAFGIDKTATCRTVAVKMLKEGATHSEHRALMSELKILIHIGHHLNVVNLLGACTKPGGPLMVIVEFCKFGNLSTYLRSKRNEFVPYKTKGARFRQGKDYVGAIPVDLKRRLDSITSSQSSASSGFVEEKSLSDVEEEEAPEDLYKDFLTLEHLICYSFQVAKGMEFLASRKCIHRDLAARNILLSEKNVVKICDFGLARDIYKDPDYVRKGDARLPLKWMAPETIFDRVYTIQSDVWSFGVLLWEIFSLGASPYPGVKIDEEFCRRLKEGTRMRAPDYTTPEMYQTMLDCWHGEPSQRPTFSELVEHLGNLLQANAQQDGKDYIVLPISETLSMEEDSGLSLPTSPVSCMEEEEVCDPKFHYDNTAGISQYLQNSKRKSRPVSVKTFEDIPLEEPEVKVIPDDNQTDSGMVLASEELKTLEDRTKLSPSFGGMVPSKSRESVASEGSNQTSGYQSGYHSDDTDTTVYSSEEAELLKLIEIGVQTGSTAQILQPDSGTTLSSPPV
T5 sequence (P08581 25-1390): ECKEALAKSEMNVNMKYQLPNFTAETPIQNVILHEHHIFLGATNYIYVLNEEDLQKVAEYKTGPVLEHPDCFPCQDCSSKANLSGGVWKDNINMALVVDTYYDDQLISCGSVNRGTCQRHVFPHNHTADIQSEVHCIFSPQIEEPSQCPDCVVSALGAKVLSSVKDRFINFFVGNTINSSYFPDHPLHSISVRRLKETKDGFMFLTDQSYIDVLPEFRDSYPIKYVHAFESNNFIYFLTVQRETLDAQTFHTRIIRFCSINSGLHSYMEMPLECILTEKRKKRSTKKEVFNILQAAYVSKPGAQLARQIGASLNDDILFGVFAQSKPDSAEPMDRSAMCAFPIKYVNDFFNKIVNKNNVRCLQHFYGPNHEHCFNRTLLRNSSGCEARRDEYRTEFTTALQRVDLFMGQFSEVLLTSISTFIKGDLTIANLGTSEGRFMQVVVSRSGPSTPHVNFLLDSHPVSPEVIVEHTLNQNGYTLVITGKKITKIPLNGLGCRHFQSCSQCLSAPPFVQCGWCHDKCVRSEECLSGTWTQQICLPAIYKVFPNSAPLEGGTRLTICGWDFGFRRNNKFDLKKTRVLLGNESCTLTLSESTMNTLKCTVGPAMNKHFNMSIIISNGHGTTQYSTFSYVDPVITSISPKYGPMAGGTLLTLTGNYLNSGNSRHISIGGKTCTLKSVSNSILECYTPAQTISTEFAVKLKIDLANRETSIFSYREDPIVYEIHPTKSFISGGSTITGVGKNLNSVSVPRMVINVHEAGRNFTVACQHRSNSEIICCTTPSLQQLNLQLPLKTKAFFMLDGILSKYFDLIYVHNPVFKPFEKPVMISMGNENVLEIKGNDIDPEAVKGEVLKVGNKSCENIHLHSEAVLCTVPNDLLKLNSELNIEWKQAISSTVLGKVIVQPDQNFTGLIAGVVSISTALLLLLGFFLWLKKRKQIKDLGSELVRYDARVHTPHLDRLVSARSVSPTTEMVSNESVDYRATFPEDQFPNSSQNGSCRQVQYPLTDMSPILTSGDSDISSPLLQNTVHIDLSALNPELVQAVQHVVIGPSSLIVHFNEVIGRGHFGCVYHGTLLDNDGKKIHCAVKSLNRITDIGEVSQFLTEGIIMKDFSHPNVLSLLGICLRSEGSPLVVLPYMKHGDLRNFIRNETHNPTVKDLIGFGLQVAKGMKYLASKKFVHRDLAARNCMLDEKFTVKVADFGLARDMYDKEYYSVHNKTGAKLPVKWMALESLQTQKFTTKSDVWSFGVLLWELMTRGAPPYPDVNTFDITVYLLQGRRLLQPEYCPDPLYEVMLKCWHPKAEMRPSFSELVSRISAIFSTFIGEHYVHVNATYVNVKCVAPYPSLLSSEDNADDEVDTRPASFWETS
T3 sequence (P00533 25-1210, species assumed): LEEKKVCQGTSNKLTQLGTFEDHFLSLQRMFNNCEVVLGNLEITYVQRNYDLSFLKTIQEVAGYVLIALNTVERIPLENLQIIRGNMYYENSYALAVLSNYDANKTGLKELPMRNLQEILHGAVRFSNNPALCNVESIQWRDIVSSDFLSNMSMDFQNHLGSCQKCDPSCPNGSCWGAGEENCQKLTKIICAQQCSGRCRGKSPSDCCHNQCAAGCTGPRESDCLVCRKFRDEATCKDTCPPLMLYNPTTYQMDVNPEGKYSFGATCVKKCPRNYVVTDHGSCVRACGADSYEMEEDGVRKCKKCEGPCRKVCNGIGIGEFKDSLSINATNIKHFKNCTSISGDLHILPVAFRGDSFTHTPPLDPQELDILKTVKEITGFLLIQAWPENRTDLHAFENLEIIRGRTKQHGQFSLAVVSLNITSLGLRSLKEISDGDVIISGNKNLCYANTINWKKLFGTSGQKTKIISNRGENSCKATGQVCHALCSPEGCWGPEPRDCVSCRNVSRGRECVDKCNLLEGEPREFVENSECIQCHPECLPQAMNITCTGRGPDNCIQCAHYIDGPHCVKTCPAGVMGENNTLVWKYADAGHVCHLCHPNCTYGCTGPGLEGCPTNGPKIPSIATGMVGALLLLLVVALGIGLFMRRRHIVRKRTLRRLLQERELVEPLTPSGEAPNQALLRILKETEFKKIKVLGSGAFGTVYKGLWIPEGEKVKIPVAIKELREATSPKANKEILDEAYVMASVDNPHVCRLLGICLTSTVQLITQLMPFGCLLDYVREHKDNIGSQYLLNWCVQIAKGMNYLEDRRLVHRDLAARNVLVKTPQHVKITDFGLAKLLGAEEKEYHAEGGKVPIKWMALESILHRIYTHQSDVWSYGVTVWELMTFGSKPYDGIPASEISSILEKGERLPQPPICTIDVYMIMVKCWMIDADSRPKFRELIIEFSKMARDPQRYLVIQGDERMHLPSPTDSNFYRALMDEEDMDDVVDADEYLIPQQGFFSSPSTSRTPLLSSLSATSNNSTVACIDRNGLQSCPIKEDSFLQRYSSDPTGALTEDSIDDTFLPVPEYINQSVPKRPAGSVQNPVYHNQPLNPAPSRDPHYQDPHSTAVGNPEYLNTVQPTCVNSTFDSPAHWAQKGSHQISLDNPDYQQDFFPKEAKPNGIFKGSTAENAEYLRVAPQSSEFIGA
T8 sequence (Q9Y243 whole entry, the tested form may be a part): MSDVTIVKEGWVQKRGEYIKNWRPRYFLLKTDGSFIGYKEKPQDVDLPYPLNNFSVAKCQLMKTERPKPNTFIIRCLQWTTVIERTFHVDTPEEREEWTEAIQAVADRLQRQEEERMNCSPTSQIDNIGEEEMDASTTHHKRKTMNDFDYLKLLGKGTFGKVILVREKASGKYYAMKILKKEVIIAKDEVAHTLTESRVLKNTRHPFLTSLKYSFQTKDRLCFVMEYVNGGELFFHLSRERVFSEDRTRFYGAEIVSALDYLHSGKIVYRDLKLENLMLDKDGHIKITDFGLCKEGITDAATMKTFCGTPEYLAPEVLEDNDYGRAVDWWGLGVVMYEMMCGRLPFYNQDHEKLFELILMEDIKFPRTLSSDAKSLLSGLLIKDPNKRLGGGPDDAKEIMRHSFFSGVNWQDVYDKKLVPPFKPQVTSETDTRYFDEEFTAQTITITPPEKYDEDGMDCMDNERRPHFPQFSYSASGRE
T2 sequence (P06239 whole entry, species assumed, the tested form may be a part): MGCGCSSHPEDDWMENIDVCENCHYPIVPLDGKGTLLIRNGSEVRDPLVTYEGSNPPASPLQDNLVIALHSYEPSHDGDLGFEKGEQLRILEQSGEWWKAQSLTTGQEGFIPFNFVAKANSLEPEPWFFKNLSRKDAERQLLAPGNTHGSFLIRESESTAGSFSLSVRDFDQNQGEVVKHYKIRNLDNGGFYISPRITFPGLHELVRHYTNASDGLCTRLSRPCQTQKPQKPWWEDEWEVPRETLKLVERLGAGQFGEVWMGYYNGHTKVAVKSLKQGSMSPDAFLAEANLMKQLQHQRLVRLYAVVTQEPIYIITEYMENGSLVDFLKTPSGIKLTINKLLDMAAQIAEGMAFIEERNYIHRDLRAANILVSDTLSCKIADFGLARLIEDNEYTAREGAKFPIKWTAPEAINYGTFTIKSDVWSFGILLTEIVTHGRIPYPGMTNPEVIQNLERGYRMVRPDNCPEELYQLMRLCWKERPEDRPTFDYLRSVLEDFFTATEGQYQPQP

SMILES	pIC50 (Kdr; Table 3)	pIC50 (Lck; Table 3)	pIC50 (EGFR)	pIC50 (Itk; Table 3)	pIC50 (c-Met)	pIC50 (Zap-70; Table 3)	pIC50 (Tek)	pIC50 (AKT)	pIC50 (Kdr)	pIC50 (Lck)	pIC50 (Itk)	pIC50 (Zap-70)
O=c1[nH]c2ccccc2n1-c1ncnc(Nc2ccccc2[N+](=O)[O-])n1 [Compound 493]			< 4.89		4.89 to 5.00		5.00 to 5.16	< 4.89	< 4.89	< 4.89	< 4.89	< 4.89
Nc1nc2ccccc2n1-c1ncnc(Nc2ccc(S(N)(=O)=O)cc2)n1 [Compound 923]			< 4.93		5.20 to 5.98		< 4.93	< 4.93	> 5.98	4.93 to 5.04	5.20 to 5.98	< 4.93
COc1cc(Nc2ncnc(-c3cccc4ccccc34)n2)cc(OC)c1OC [Compound 611]			< 4.94		< 4.94		5.05 to 5.21	< 4.94	5.21 to 5.99	5.21 to 5.99	4.94 to 5.05	< 4.94
COc1cc(Nc2ncnc(-c3c(O)n(C)c4ccccc34)n2)cc(OC)c1OC [Compound 465]	5.23 to 6.01	< 4.96	< 4.96	< 4.96	< 4.96	< 4.96	< 4.96	< 4.96				
O=c1[nH]c2ccccc2n1-c1ncnc(Nc2ccc(Cl)cc2Cl)n1 [Compound 504]			< 4.92		< 4.92		5.19 to 5.97	< 4.92	< 4.92	< 4.92	< 4.92	< 4.92
O=c1[nH]c2ccccc2n1-c1ncnc(Nc2ccc(OC(F)(F)F)cc2)n1 [Compound 462]	< 4.94	4.94 to 5.05	< 4.94	< 4.94	4.94 to 5.05	5.05 to 5.21	5.05 to 5.21	< 4.94				
COc1cc(Nc2ncnc(-c3cccnc3NCCCN)n2)cc(OC)c1OC [Compound 1078]			< 4.96		< 4.96		< 4.96	< 4.96	5.23 to 6.01	< 4.96	< 4.96	< 4.96
COc1cc(Nc2ncnc(-n3c(OCc4ccccn4)nc4ccccc43)n2)cc(OC)c1OC [Compound 690]			< 5.03		< 5.03		< 5.03	< 5.03	> 6.08	< 5.03	< 5.03	< 5.03
COc1cc(Nc2ncnc(NN3CCCC3)n2)cc(OC)c1OC [Compound 1002]			< 4.89		< 4.89		< 4.89	< 4.89	4.89 to 5.00	< 4.89	< 4.89	< 4.89
COc1ccccc1Nc1nc2ccccc2n1-c1ncnc(Nc2cc(OC)c(OC)c(OC)c2)n1 [Compound 398]	5.15 to 5.32	< 5.05	< 5.05	< 5.05	< 5.05	< 5.05	5.05 to 5.15	< 5.05				
Nc1ncnc(Nc2ccc(C3CCCCC3)cc2)n1 [Compound 1021]	< 4.78	< 4.78	< 4.78	< 4.78	< 4.78	< 4.78	< 4.78					
COc1cc(Nc2ncnc(N)n2)cc(OC)c1OC [Compound 1024, N-(3,4,5-trimethoxy-phenyl)-[1,3,5]triazine-2,4-diamine]	< 4.79	< 4.79	< 4.79	< 4.79	< 4.79	< 4.79	< 4.79					

Other lines, results leading:

pIC50 (Kdr; Table 3)	pIC50 (Lck; Table 3)	pIC50 (EGFR)	pIC50 (Itk; Table 3)	pIC50 (c-Met)	pIC50 (Zap-70; Table 3)	pIC50 (Tek)	pIC50 (AKT)	pIC50 (Kdr)	pIC50 (Lck)	pIC50 (Itk)	pIC50 (Zap-70)	SMILES
5.27 to 6.05	5.00 to 5.11	5.27 to 6.05	5.11 to 5.27	< 5.00	< 5.00	5.11 to 5.27	5.11 to 5.27					CC(C)(C)OC(=O)NCc1ccc(Nc2ncnc(Nc3cc(-c4ccco4)n[nH]3)n2)cc1 [Compound 431]
		< 5.10		< 5.10		< 5.10	< 5.10	> 6.15	5.10 to 5.21	< 5.10	< 5.10	COc1cc(Nc2ncnc(-n3c(NCc4ccc(Br)cc4)nc4ccccc43)n2)cc(OC)c1OC [Compound 940]
		5.19 to 5.97		5.19 to 5.97		5.19 to 5.97	5.19 to 5.97	5.19 to 5.97	5.19 to 5.97	5.19 to 5.97	5.19 to 5.97	Nc1nc2ccccc2n1-c1ncnc(Nc2ccc(Cl)c(Cl)c2)n1 [Compound 528]
		5.21 to 5.99		5.21 to 5.99		5.21 to 5.99	4.93 to 5.04	> 5.99	5.21 to 5.99	5.21 to 5.99	5.21 to 5.99	O=C(O)Cc1ccc(Nc2ncnc(Nc3cc(-c4ccccc4)n[nH]3)n2)cc1 [Compound 982]
		5.12 to 5.28		5.28 to 6.06		5.01 to 5.12	< 5.01	5.28 to 6.06	< 5.01	5.12 to 5.28	< 5.01	CC(C)(C)OC(=O)NCc1cccc(Nc2ncnc(Nc3cc(-c4ccccc4)n[nH]3)n2)c1 [Compound 986]
		< 5.06		< 5.06		< 5.06	< 5.06	5.33 to 6.11	5.06 to 5.16	< 5.06	< 5.06	COc1cc(Nc2ncnc(-n3c(NCCCc4ccccc4)nc4ccccc43)n2)cc(OC)c1OC [Compound 945]
5.37 to 6.15	< 5.09	< 5.09	< 5.09	< 5.09	< 5.09	< 5.09	< 5.09					COc1cc(Nc2ncnc(-n3c(Nc4cc(OC)c(OC)c(OC)c4)nc4ccccc43)n2)cc(OC)c1OC [Compound 402]
		5.30 to 6.08		< 5.03		5.03 to 5.14	< 5.03	5.30 to 6.08	5.30 to 6.08	5.14 to 5.30	< 5.03	COc1cc(Nc2ncnc(Nc3cccc(NC(=O)O[C@@H]4CCOC4)c3)n2)cc(OC)c1OC [Compound 694]
